Columns and labels:
U-CH2 chordoma cell line = test: Cell viability assay (alamarBlue, 72 h), U-CH2; type: cell-based, human
Procedure: (§1) Chordoma cell lines were cultured as described previously[10],[12],[33],[34]. Briefly, U-CH1 and U-CH2 cell lines were cultured in 4:1 IMDM:RPMI medium supplemented with 10% fetal bovine serum (FBS) and 1% penicillin/streptomycin in gel-coated flasks. […] CH22, UM-Chor1, U-CH12, and U-CH7 cell lines were cultured in RPMI medium supplemented with 10% FBS and 1% penicillin/streptomycin. The cell lines all undergo regular mycoplasma screening.
(§2) Cells were seeded in 384 well plates and were treated with test compound in quadruplicate 24 h after plating. Cell viability was assessed at 72 h using alamarBlue (ThermoFisher, USA). […] IC50 values were determined by four-parameter nonlinear regression analyses using GraphPad Prism™ version 8 software (San Diego, CA).

U-CH1 chordoma cell line = test: Cell viability assay (alamarBlue, 72 h), U-CH1; type: cell-based, human
Procedure: as §1, §2

HL60 cells = test: AsedaSciences SYSTEMETRIC Cell Health Screen (flow cytometry toxicity profiling); conditions: for CC: Cell Cycle score / CM: Cell morphology score / CMI: Cell membrane integrity score / GSH: Glutathione score / MMP: Mitochondrial membrane depolarization score / NMI1: Nuclear membrane integrity 1 score / NMI2: Nuclear membrane integrity 2 score / ROS: Reactive superoxide species score / CHI: Cell Health Index: HL60, 4 h, 5 nM–100 µM; for CC: Cell Cycle score / CM: Cell morphology score / CMI: Cell membrane integrity score / GSH: Glutathione score / MMP: Mitochondrial membrane depolarization score / NMI1: Nuclear membrane integrity 1 score / NMI2: Nuclear membrane integrity 2 score / ROS: Reactive superoxide species score: probability 0–1, n = 2; for CHI: Cell Health Index: probability (0–1) of high-risk class, n = 2; for Cell Health Toxcity Profile CC (DyeCycle Violet) / Cell Health Toxcity Profile CM (Cell morphology) / Cell Health Toxcity Profile CMI (Cell membrane integrity) / Cell Health Toxcity Profile GSH (Glutathione) / Cell Health Toxcity Profile MMP (Mitochondrial membrane depolarization) / Cell Health Toxcity Profile NMI1 (Nuclear membrane integrity 1) / Cell Health Toxcity Profile NMI2 (Nuclear membrane integrity 2) / Cell Health Toxcity Profile ROS (Reactive superoxide species) / Cell Health Toxcity Profile CHI: SYSTEMETRIC Cell Health Screen, assay n=2; for Cell Health Toxcity Profile CHI: classifier output
Text: To prioritize further optimization, in addition to cellular potency, we utilized the AsedaSciences® […]® Cell Health Screen. This live cell flow cytometry (FC) screen was developed to assess human safety risk for candidate pharmaceutical small molecules at the early hit-to-lead stage of development. The screen works by estimating the risk using a supervised machine learning (ML) classifier to assess a multiparametric cellular stress phenotype, produced by the test compound, relative to a training set of known compounds (Table S1). This screen has been designed for early pipeline risk estimation regardless of pharmaceutical class/disease type, so it uses HL60 as the reporter cell line.
The ML classifier was trained with 300 historically known compounds (on market or withdrawn drugs, research compounds, etc.), which were divided into two outcome classes based upon literature, clinical trials, and market histories where applicable. This external curation informed an outcome of “high-risk” or “low-risk”. All 300 compounds were also processed through the automated FC screen, populating each of the two classes with frequency distributions of empirical cell-based phenotypes.
To estimate human safety risk for an unknown compound, the ML classifier assesses the similarity of the test compound’s cell-based phenotype to the distributions of phenotypes in the two outcome classes. […] Phenotypes are derived from twelve FC detection parameters, including light scatter and a series of fluorescent physiological reporter dyes, that track cell stress-related endpoints.
To produce the Cell Health Index, the ML classifier uses all twelve FC parameters simultaneously in a multidimensional logistic regression model, so the CHI contains the most predictive power. In addition to the Cell Health Index, Table 4 also reports probability scores for eight cell stress-related endpoints. These scores are produced individually by passing information to the ML classifier relating to parameters that inform that endpoint. For example, to produce the cell morphology (CM) score, the ML classifier only uses the FC detection parameters for forward scatter (informing change in cell diameter) and side scatter (informing change in optical granularity of the cell) to inform the model. Together, these eight endpoints provide a “biological fingerprint”, allowing assessment of the degree to which SAR series members behave differently across endpoints.
In a 384-well platform, HL60 cells were exposed to a 10-step, 3 × dilution series of each test compound (5 nM–100 µM) for 4 h at 37 °C with 5% CO2. Each dilution series was screened in duplicate, occupying a total of 20 wells, allowing 16 test compounds to be assayed per plate. Each row contained one positive and one negative control well, for a total of 16 replicate positive/negative control pairs on each assay plate. Compound formatting, cell deposition, and dye application were performed robotically so that final assay conditions comprised 100,000 cells in a 40 µL volume. After the 4 h compound exposure, cells were immediately stained with a panel of fluorescent dyes that report physiological signatures of both mitochondrial dysfunction and gross cell stress. Fluorescence and forward/side-scatter data were collected using automated FC with no gating. FC data are processed by an automated algorithm for producing quality control measures and ML classification of compound phenotypes. • 2. HL60 cell culture production
HL60 cells were produced as suspension cultures in glass 850 cm^2 roller bottles with vented caps, at 1 RPM, 5% CO2, and 37 °C. […] Culture density was maintained at or below 1 × 10^6 cells/mL.

Row | Structure (SMILES) | IC50 (U-CH2 chordoma cell line; n = 4, 72 h) | IC50 (U-CH1 chordoma cell line; n = 4, 72 h) | CC: Cell Cycle score (HL60 cells) | CM: Cell morphology score (HL60 cells) | CMI: Cell membrane integrity score (HL60 cells) | GSH: Glutathione score (HL60 cells) | MMP: Mitochondrial membrane depolarization score (HL60 cells) | NMI1: Nuclear membrane integrity 1 score (HL60 cells) | NMI2: Nuclear membrane integrity 2 score (HL60 cells) | ROS: Reactive superoxide species score (HL60 cells) | CHI: Cell Health Index (HL60 cells) | Cell Health Toxcity Profile CC (DyeCycle Violet) (HL60 cells) | Cell Health Toxcity Profile CM (Cell morphology) (HL60 cells) | Cell Health Toxcity Profile CMI (Cell membrane integrity) (HL60 cells) | Cell Health Toxcity Profile GSH (Glutathione) (HL60 cells) | Cell Health Toxcity Profile MMP (Mitochondrial membrane depolarization) (HL60 cells) | Cell Health Toxcity Profile NMI1 (Nuclear membrane integrity 1) (HL60 cells) | Cell Health Toxcity Profile NMI2 (Nuclear membrane integrity 2) (HL60 cells) | Cell Health Toxcity Profile ROS (Reactive superoxide species) (HL60 cells) | Cell Health Toxcity Profile CHI (HL60 cells) | also measured
1 | C#Cc1cccc(Nc2ncnc3ccc(Cl)cc23)c1 [Compound 7] | > 100 µM | 25 µM | 0.10 | 0.0047 | 0.030 | 0.011 | 0.015 | 0.13 | 0.053 | 0.20 | 0.16 |  |  |  |  |  |  |  |  |  | 
2 | C#Cc1cccc(Nc2ncnc3ccc(C#N)cc23)c1 [Compound 18] | > 100 µM | 74 µM | 0.27 | 0.0026 | 0.0079 | 0.023 | 0.11 | 0.33 | 0.094 | 0.042 | 0.18 |  |  |  |  |  |  |  |  |  | 
3 | C#Cc1cccc(Nc2c(C#N)cnc3ccc(F)cc23)c1 [Compound 25] | > 100 µM | 23 µM |  |  |  |  |  |  |  |  |  | 0.76 | 0.98 | 0.99 | 0.97 | 0.96 | 0.71 | 0.72 | 0.93 | 0.69 | 
4 | C#Cc1cccc(Nc2c(C#N)cnc3ccc(Cl)cc23)c1 [Compound 26] | 40 µM | 14 µM |  |  |  |  |  |  |  |  |  | 0.93 | 1.00 | 1.00 | 0.99 | 0.99 | 0.98 | 0.97 | 1.00 | 0.83 | 
5 | C#Cc1cccc(Nc2c(C#N)cnc3cc(OC)c(OC)cc23)c1 [Compound 22, 4-((3-ethynylphenyl)amino)-6,7-dimethoxyquinoline-3-carbonitrile] |  |  |  |  |  |  |  |  |  |  |  | 0.33 | 0.35 | 0.77 | 0.071 | 0.39 | 0.67 | 0.29 | 0.81 | 0.40 | IC50 (U-CH2 chordoma cell line; Homo sapiens, UCH2, n = 4, 72 h): 36 µM; IC50 (U-CH1 chordoma cell line; Homo sapiens, UCH1, n = 4, 72 h): 4.1 µM
6 | C#Cc1cccc(Nc2ncnc3ccc(S(C)(=O)=O)cc23)c1 [Compound 19] | 52 µM | 45 µM | 0.33 | 0.0013 | 0.0057 | 0.044 | 0.21 | 0.36 | 0.089 | 0.055 | 0.22 |  |  |  |  |  |  |  |  |  | 
7 | C#Cc1cccc(Nc2ncnc3ccc(Br)cc23)c1 [Compound 8] | > 100 µM | 16 µM | 0.087 | 0.0037 | 0.0024 | 0.05 | 0.11 | 0.13 | 0.020 | 0.083 | 0.19 |  |  |  |  |  |  |  |  |  | 
8 | C#Cc1cccc(Nc2c(C#N)cnc3ccc(S(C)(=O)=O)cc23)c1 [Compound 29] | 52 µM | 92 µM |  |  |  |  |  |  |  |  |  | 0.071 | 0.003 | 0.037 | 0.039 | 0.021 | 0.18 | 0.009 | 0.046 | 0.16 | 
9 | C#Cc1cccc(Nc2ncnc3ccc(C(F)(F)F)cc23)c1 [Compound 10] | 42 µM | 21 µM | 0.59 | 0.058 | 0.045 | 0.004 | 0.74 | 0.21 | 0.19 | 0.77 | 0.40 |  |  |  |  |  |  |  |  |  | 
10 | C#Cc1cccc(Nc2c(C#N)cnc3ccccc23)c1 [Compound 24] | > 100 µM | 34 µM |  |  |  |  |  |  |  |  |  | 0.76 | 0.99 | 1.00 | 0.98 | 0.97 | 0.85 | 0.81 | 0.98 | 0.70 | 
11 | C#Cc1cccc(Nc2ncnc3ccc(C)cc23)c1 [Compound 4] | > 100 µM | 15 µM | 0.65 | 0.0051 | 0.21 | 0.12 | 0.49 | 0.059 | 0.17 | 0.20 | 0.31 |  |  |  |  |  |  |  |  |  | 
12 | C#Cc1cccc(Nc2c(C#N)cnc3ccc(Br)cc23)c1 [Compound 27] | 30 µM | 22 µM |  |  |  |  |  |  |  |  |  | 0.98 | 1.00 | 1.00 | 0.98 | 0.96 | 0.32 | 0.98 | 1.00 | 0.75 | 
13 | C#Cc1cccc(Nc2ncnc3cc(F)ccc23)c1 [Compound 12] | > 100 µM | 41 µM | 0.59 | 0.058 | 0.045 | 0.004 | 0.74 | 0.21 | 0.19 | 0.77 | 0.40 |  |  |  |  |  |  |  |  |  | 
